Assays:
slender amaranth (Am) [1] = test: Test Example 2: herbicidal effects by upland field soil treatment; format: in vivo; details: 100 g of the active ingredient per 10 ares;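 further: grade of growth control; 5 = at least 90%; 4 = 70 to 90%; 3 = 50 to 70%; 2 = 30 to 50%; 1 = 10 to 30%; 0 = under 10%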
Excerpt: (§1) (Test on Herbicidal Effects by Upland Field Soil Treatment)

rice flatsedge (Ci) [2] = test: as above; format: in vivo; details: 100 g of the active ingredient per 10 ares
Excerpt: as §1

Digitaria ciliaris (Di) = test: as above; format: in vivo; details: 100 g of the active ingredient per 10 ares;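 further: grade of growth control; 5 = at least 90%; 4 = 70 to 90%; 3 = 50 to 70%; 2 = 30 to 50%; 1 = 10 to 30%; 0 = under 10%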
Excerpt: as §1

[3] = tested on: common lambsquarters (Ch); test: as above; format: in vivo; details: 100 g of the active ingredient per 10 ares
Excerpt: as §1

barnyardgrass (Ec) [4] = test: as above; format: in vivo; details: 100 g of the active ingredient per 10 ares
Excerpt: as §1

pale smartweed (Po) [5] = test: as above; format: in vivo; details: 100 g of the active ingredient per 10 ares
Excerpt: as §1

bulrush (Sc) = test: Test Example 1: herbicidal effects by paddy field soil treatment; format: in vivo; details: 100 g of the active ingredient per 10 ares, 21st day after the application, index 0-5 of Table 47;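 further: grade of growth control; 5 = at least 90%; 4 = 70 to 90%; 3 = 50 to 70%; 2 = 30 to 50%; 1 = 10 to 30%; 0 = under 10%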
Outline: (§2)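 Flooded paddy-soil pots (3 cm water) sown after puddling/leveling; treatment 100 g a.i./10 ares; greenhouse culture; herbicidal effect rated visually on a scoring scale at 21 d post-application.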

barnyardgrass (Ec) [6] = test: as above; format: in vivo; details: 100 g of the active ingredient per 10 ares, 21st day after the application, index 0-5 of Table 47
Outline: as §2

monochoria (Mo) = test: as above; format: in vivo; details: 100 g of the active ingredient per 10 ares, 21st day after the application, index 0-5 of Table 47;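 further: grade of growth control; 5 = at least 90%; 4 = 70 to 90%; 3 = 50 to 70%; 2 = 30 to 50%; 1 = 10 to 30%; 0 = under 10%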
Outline: as §2

slender amaranth (Am) [7] = test: Test Example 3: herbicidal effects by upland field foliage treatment; format: in vivo; set-up: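 grade of growth control; 5 = at least 90%; 4 = 70 to 90%; 3 = 50 to 70%; 2 = 30 to 50%; 1 = 10 to 30%; 0 = under 10%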
Outline: (§3)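 Post-emergence upland foliage test. Seedlings grown 2 weeks under glass in pots (120 cm^2) of sand, seed topped with soil; treated on the foliage, kept in greenhouse, then assessed at day 14 using rating standards.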

Diaitaria ciliaris (Di) = test: as above; format: in vivo; set-up: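 grade of growth control; 5 = at least 90%; 4 = 70 to 90%; 3 = 50 to 70%; 2 = 30 to 50%; 1 = 10 to 30%; 0 = under 10%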
Outline: as §3

rice flatsedge (Ci) [8] = test: as above; format: in vivo; set-up: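 grade of growth control; 5 = at least 90%; 4 = 70 to 90%; 3 = 50 to 70%; 2 = 30 to 50%; 1 = 10 to 30%; 0 = under 10%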
Outline: as §3

[9] = tested on: common lambsquarters (Ch); test: as above; format: in vivo; set-up: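 grade of growth control; 5 = at least 90%; 4 = 70 to 90%; 3 = 50 to 70%; 2 = 30 to 50%; 1 = 10 to 30%; 0 = under 10%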
Outline: as §3

barnyardgrass (Ec) [10] = test: as above; format: in vivo; set-up: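 grade of growth control; 5 = at least 90%; 4 = 70 to 90%; 3 = 50 to 70%; 2 = 30 to 50%; 1 = 10 to 30%; 0 = under 10%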
Outline: as §3

pale smartweed (Po) [11] = test: as above; format: in vivo; set-up: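 grade of growth control; 5 = at least 90%; 4 = 70 to 90%; 3 = 50 to 70%; 2 = 30 to 50%; 1 = 10 to 30%; 0 = under 10%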
Outline: as §3

[12] = evaluated on the 21st day after application
[13] = 100 g active ingredient per 10 ares, evaluated 14th day after treatment
[14] = 21st day after the application, index 0-5 of Table 47
[15] = 100 g of the active ingredient per 10 ares, evaluated on the 14th day after treatment

Structure (SMILES) | Herbicidal effects Am (slender amaranth (Am) [1]; [12]) | Herbicidal effects Ci (rice flatsedge (Ci) [2]; [12]) | Herbicidal effects Di (Digitaria ciliaris (Di); [12]) | Herbicidal effects Ch [3, 12] | Herbicidal effects Ec (barnyardgrass (Ec) [4]; [12]) | Herbicidal effects Po (pale smartweed (Po) [5]; [12]) | Herbicidal effects Sc (bulrush (Sc)) | Herbicidal effects Ec (barnyardgrass (Ec) [6]) | Herbicidal effects Mo (monochoria (Mo)) | Herbicidal effects Am (slender amaranth (Am) [7]; [13]) | Herbicidal effects Di (Diaitaria ciliaris (Di); [13]) | Herbicidal effects Ci (rice flatsedge (Ci) [8]; [13]) | Herbicidal effects Ch [9, 13] | Herbicidal effects Ec (barnyardgrass (Ec) [10]; [13]) | Herbicidal effects Po (pale smartweed (Po) [11]; [13]) | melting point [°C] | Herbicidal effects Am (slender amaranth (Am) [1]; [14]) | Herbicidal effects Ci (rice flatsedge (Ci) [2]; [14]) | Herbicidal effects Di (Digitaria ciliaris (Di); [14]) | Herbicidal effects Ch [3, 14] | other results
Cn1cc(-c2cc(OC3CCCC3)c(Cl)cc2F)c(=O)cc1C(F)(F)F [Compound No. 6-14, 5-(4-chloro-2-fluoro-5-cyclopentyloxyphenyl)-1-methyl-2-trifluoromethyl-4(1H)-pyridone] | 5 | 5 | 5 | 5 | 5 | 5 | 5 | 5 | 5 | 5 | 5 | 5 | 5 | 5 | 5 | 152 to 154 | – | – | – | – | –
Nn1c(C(F)(F)F)ccc(-c2ccc(Cl)cc2Cl)c1=O [Compound No. 1-5, 1-amino-3-(2,4-dichlorophenyl)-6-trifluoromethyl-2(1H)-pyridone] | – | – | – | – | – | – | 5 | 5 | 5 | – | – | – | – | – | – | 98 to 100 | 5 | 5 | 5 | 5 | Herbicidal effects Ec (barnyardgrass (Ec) [4]; [14]): 5; Herbicidal effects Po (pale smartweed (Po) [5]; [14]): 5; Herbicidal effects Am (slender amaranth (Am) [7]; [15]): 5; Herbicidal effects Di (Diaitaria ciliaris (Di); [15]): 5; Herbicidal effects Ci (rice flatsedge (Ci) [8]; [15]): 5; Herbicidal effects Ch [9, 15]: 5; Herbicidal effects Ec (barnyardgrass (Ec) [10]; [15]): 5; Herbicidal effects Po (pale smartweed (Po) [11]; [15]): 5
CC(C)Oc1cc(-c2cn(C)c(C(F)(F)F)cc2=O)c(F)cc1Cl [Compound No. 6-7, 5-(4-chloro-2-fluoro-5-isopropoxyphenyl)-1-methyl-2-trifluoromethyl-4(1H)-pyridone] | 5 | 5 | 5 | 5 | 5 | 5 | 5 | 5 | 5 | 5 | 5 | 5 | 5 | 5 | 5 | 150 to 151 | – | – | – | – | –
CCOC(=O)c1cc2c(-c3ccc(C(F)(F)F)n(C)c3=O)c(F)cc(Cl)c2o1 [Compound No. 4-6, 3-(7-chloro-2-ethoxycarbonyl-5-fluorobenzofuran-4-yl)-1-methyl-6-trifluoromethyl-2-(1H)-pyridone] | – | – | – | – | – | – | 5 | 5 | 5 | 5 | 4 | 5 | 5 | 5 | 5 | 118 to 120 | – | – | – | – | –
Cc1cc2c(Cl)cc(F)c(-c3ccc(C(F)(F)F)n(C)c3=O)c2o1 [Compound No. 5-1, 3-(4-chloro-6-fluoro-2-methylbenzofuran-7-yl)-1-methyl-6-trifluoromethyl-2 (1H)-pyridone] | 5 | 5 | 5 | 5 | 5 | 5 | 5 | 5 | 5 | 5 | 5 | 5 | 5 | 5 | 5 | 138 to 140 | – | – | – | – | –
Cn1c(C(F)(F)F)ccc(-c2cc(NS(C)(=O)=O)c(Cl)cc2F)c1=O [Compound No. 1-60, 3-(4-chloro-2-fluoro-5-methylsulfonylaminophenyl)-1-methyl-6-trifluoromethyl-2(1H)-pyridone] | – | – | – | – | – | – | 5 | 5 | 5 | – | – | – | – | – | – | 113 to 114 | 5 | 5 | 5 | 5 | Herbicidal effects Ec (barnyardgrass (Ec) [4]; [14]): 5; Herbicidal effects Po (pale smartweed (Po) [5]; [14]): 5; Herbicidal effects Am (slender amaranth (Am) [7]; [15]): 5; Herbicidal effects Di (Diaitaria ciliaris (Di); [15]): 5; Herbicidal effects Ci (rice flatsedge (Ci) [8]; [15]): 5; Herbicidal effects Ch [9, 15]: 5; Herbicidal effects Ec (barnyardgrass (Ec) [10]; [15]): 5; Herbicidal effects Po (pale smartweed (Po) [11]; [15]): 5
Cn1c(C(F)(F)F)ccc(-c2ccc(Cl)cc2F)c1=O [Compound No. 1-2, 3-(4-chloro-2-fluorophenyl)-1-methyl-6-trifluoromethyl-2(1H)-pyridone] | – | – | – | – | – | – | 5 | 5 | 5 | – | – | – | – | – | – | 103 to 104 | 5 | 5 | 5 | 5 | Herbicidal effects Ec (barnyardgrass (Ec) [4]; [14]): 5; Herbicidal effects Po (pale smartweed (Po) [5]; [14]): 5; Herbicidal effects Am (slender amaranth (Am) [7]; [15]): 5; Herbicidal effects Di (Diaitaria ciliaris (Di); [15]): 5; Herbicidal effects Ci (rice flatsedge (Ci) [8]; [15]): 5; Herbicidal effects Ch [9, 15]: 5; Herbicidal effects Ec (barnyardgrass (Ec) [10]; [15]): 5; Herbicidal effects Po (pale smartweed (Po) [11]; [15]): 5

From patent publication US6472348B1, “Pyridone derivatives and herbicides” (Kumiai Chemical Industry Co., Ltd., priority 1996, dated 2002)
